The conditions of data set [1]: taken hours after ingestion; cited from earlier work.
Data set [2] deals with T1, 5-HT2B receptor (Homo sapiens, UniProt P41595). The data set is described as follows: 5-HT2B receptor [^3H]5-HT binding.
For data set [3], the target named is T2, hSERT (Homo sapiens, UniProt P31645). The data set is described as follows: Release of preloaded [^3H]5-HT from HEK-hSERT cells. The data set is classed as cell-based. The settings on record: for % maximum release, hSERT [^3H]5-HT: relative to maximum release induced by METH (0.3–1 mM).
Data set [4] addresses T3, hDAT (Homo sapiens, UniProt Q01959). The data set is described as follows: Inhibition of [^3H]DA uptake by HEK-hDAT cells. Type of data set: cell-based.
For data set [5], the target named is T4, human 5-HT1A receptor (Homo sapiens, UniProt P08908).
T4 sequence (P08908 1-422): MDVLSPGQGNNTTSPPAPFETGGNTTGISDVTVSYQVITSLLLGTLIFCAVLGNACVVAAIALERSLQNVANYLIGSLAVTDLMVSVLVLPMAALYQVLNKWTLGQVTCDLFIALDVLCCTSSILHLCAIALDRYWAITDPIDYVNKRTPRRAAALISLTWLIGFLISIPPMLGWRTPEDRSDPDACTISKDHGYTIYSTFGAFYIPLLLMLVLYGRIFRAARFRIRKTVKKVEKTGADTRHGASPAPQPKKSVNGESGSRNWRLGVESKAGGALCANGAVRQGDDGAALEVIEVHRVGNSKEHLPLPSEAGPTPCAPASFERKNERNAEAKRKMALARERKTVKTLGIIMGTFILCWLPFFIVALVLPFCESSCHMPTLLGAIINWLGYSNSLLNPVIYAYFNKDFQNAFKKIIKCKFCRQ
The data set is described as follows: 5-HT1A receptor [^35S]GTPγS binding stimulation. Type of data set: biochemical. The settings on record: for Emax: read-out: % maximum stimulation, 5-HT1A stimulation of [^35S]GTPγS binding. In general terms: GTPγS is a poorly hydrolysed GTP analogue; its binding reports G protein activation.

In data set [6] the target is T1, 5-HT2B receptor. The data set is described as follows: 5-HT2B receptor inositol monophosphate. The settings on record: for Emax: read-out: % maximum stimulation, 5-HT2B stimulation of IP-1 formation. Type of data set: cell-based.
The target of data set [7] is T4, human 5-HT1A receptor. The data set is described as follows: 5-HT1A receptor [^3H]8-OH-DPAT radioligand binding.
For data set [8], the target named is T5, 5-HT2A receptor (Homo sapiens, UniProt P28223). The data set is described as follows: cell-based. The settings on record: for EC50: EC50, 5-HT2A stimulation of IP-1 formation, mean ± sem; for Selectivity (functional ratios) 5-HT2A: 5-HT1A / Selectivity (functional ratios) 5-HT2A: 5-HT2B / Selectivity (functional ratios) 5-HT2A: 5-HT2C: ratio of EC50 values; for Emax: read-out: % maximum stimulation, 5-HT2A stimulation of IP-1 formation. The data set is classed as cell-based.

In data set [9] the target is T3, hDAT. The data set is described as follows: Inhibition of [^125I]RTI-55 binding to hDAT.
For data set [10], the target named is T5, 5-HT2A receptor. The data set is described as follows: biochemical. Type of data set: binding. The settings on record: for Selectivity (binding ratios) 5-HT2A : 5-HT1A / Selectivity (binding ratios) 5-HT2A : 5-HT2B / Selectivity (binding ratios) 5-HT2A : 5-HT2C: ratio of Ki values.
The target of data set [11] is T6, hNET (Homo sapiens, UniProt P23975). The data set is described as follows: cell-based.
In data set [12] the target is T6, hNET. The data set is described as follows: Release of preloaded [^3H]NE from HEK-hNET cells. The data set is classed as cell-based. The note with it: for % maximum release, hNET [^3H]NE: relative to maximum release induced by METH (0.3–1 μM).
The target of data set [13] is T6, hNET. The data set is described as follows: biochemical. The data set is classed as binding.
Data set [14] concerns the target T2, hSERT. The data set is described as follows: Inhibition of [^125I]RTI-55 binding to hSERT.
Data set [15] has as its target T2, hSERT. The data set is described as follows: Inhibition of [^3H]5-HT uptake by HEK-hSERT cells. The data set is classed as cell-based.
Data set [16] addresses T3, hDAT. The data set is described as follows: Release of preloaded [^3H]DA from HEK-hDAT cells. The data set is classed as cell-based. The settings on record: for % maximum release, hDAT [^3H]DA: relative to maximum release induced by METH (1–10 μM).
Data set [17] deals with T7, 5-HT2C receptor (Homo sapiens, UniProt P28335).
T7 sequence (P28335 33-458): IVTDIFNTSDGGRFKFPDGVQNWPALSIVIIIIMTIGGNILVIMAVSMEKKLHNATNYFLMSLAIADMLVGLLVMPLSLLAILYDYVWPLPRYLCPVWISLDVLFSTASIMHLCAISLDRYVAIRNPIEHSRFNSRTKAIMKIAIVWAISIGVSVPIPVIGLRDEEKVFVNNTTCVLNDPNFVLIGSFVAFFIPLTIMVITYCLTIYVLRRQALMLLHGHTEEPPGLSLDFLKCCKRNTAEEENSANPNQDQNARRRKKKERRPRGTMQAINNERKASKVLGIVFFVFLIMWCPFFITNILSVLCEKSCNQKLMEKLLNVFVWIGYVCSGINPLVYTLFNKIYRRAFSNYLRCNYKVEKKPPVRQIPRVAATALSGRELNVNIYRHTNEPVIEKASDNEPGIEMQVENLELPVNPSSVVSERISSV
The data set is described as follows: cell-based. The note with it: for Emax: read-out: % maximum stimulation, 5-HT2C stimulation of IP-1 formation.

The nature of data set [18]: Human blood concentrations after ingestion. The settings on record: converted from cited ng/ml values.
The conditions of data set [19]: cited from earlier work.
The target of data set [20] is T7, 5-HT2C receptor. The settings on record: read-out: affinity of [^125I]DOI binding sites, h5-HT2C; HEK-5-HT2C; radioligand affinity.
Data set [21] has as its target T6, hNET. The settings on record: read-out: affinity of [^125I]RTI-55 binding sites, NET; HEK-hNET; cited from earlier work.
The target in data set [22] is T3, hDAT. The settings on record: read-out: affinity of [^125I]RTI-55 binding sites, DAT; HEK-hDAT; cited from earlier work.

For orientation: Ki means the equilibrium dissociation constant of an inhibitor or competing ligand from its target. Read a low Ki as a stronger hold on the target. As usually defined, the EC50 is the midpoint of the concentration-response curve. Lower therefore signals an effect from little substance. What is called IC50 is the concentration that inhibits the measured activity by half. Higher therefore signals weaker potency.

T5 sequence (P28223 whole entry): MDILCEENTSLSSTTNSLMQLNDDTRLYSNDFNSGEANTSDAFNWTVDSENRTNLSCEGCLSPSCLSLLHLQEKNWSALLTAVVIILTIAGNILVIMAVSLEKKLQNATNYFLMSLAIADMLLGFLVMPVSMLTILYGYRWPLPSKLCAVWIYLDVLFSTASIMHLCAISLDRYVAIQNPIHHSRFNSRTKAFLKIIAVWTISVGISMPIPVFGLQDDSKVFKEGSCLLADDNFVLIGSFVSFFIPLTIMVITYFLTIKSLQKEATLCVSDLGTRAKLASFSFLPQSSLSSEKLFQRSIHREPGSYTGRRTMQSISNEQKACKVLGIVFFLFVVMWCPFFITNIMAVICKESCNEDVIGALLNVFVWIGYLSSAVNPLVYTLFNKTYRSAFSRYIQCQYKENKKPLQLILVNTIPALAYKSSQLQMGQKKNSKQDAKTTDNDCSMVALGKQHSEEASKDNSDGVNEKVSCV
T1 sequence (P41595 whole entry): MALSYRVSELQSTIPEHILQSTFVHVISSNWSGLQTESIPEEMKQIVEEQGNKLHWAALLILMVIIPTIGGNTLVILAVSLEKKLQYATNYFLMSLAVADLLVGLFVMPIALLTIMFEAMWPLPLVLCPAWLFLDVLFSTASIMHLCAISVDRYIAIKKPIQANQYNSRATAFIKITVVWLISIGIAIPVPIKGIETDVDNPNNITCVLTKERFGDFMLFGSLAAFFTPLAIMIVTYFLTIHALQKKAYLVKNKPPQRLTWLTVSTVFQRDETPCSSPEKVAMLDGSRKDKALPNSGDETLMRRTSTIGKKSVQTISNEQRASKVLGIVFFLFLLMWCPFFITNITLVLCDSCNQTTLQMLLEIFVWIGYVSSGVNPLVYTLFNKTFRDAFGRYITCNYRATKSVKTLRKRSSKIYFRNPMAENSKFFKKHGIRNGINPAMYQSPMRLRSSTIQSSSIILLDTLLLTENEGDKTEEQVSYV
T3 sequence (Q01959 whole entry): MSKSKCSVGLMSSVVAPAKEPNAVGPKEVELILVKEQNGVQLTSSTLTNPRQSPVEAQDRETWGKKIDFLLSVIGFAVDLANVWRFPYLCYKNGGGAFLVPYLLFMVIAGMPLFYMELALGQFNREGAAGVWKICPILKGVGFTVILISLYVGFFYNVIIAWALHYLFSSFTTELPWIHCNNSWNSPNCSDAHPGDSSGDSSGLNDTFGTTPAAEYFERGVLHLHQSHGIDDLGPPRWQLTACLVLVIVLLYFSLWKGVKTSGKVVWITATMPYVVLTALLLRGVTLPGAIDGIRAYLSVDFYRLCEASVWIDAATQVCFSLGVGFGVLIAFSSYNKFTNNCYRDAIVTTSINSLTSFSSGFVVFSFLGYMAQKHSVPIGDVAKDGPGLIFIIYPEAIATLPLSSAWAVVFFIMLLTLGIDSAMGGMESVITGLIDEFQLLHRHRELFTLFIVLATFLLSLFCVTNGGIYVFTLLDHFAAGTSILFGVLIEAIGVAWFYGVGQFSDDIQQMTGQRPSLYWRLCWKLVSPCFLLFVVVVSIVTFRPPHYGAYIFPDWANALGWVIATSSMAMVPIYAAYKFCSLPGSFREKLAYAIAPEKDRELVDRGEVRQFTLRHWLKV
T6 sequence (P23975 whole entry): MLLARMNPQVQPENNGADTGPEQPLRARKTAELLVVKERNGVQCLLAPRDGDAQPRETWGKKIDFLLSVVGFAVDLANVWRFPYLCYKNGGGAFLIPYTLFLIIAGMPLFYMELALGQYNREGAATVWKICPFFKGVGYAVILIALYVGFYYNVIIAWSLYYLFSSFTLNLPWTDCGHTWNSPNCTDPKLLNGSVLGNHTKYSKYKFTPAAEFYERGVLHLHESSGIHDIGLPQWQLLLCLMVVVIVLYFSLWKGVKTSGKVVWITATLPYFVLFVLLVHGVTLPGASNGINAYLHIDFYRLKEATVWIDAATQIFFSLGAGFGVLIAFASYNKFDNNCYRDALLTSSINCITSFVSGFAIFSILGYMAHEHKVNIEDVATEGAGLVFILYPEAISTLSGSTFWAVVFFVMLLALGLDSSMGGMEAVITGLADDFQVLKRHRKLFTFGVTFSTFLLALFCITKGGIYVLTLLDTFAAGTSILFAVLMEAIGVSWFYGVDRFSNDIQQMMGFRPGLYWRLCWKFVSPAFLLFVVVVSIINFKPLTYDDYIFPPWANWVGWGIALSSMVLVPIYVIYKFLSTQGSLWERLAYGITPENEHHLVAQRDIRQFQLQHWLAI
T2 sequence (P31645 whole entry): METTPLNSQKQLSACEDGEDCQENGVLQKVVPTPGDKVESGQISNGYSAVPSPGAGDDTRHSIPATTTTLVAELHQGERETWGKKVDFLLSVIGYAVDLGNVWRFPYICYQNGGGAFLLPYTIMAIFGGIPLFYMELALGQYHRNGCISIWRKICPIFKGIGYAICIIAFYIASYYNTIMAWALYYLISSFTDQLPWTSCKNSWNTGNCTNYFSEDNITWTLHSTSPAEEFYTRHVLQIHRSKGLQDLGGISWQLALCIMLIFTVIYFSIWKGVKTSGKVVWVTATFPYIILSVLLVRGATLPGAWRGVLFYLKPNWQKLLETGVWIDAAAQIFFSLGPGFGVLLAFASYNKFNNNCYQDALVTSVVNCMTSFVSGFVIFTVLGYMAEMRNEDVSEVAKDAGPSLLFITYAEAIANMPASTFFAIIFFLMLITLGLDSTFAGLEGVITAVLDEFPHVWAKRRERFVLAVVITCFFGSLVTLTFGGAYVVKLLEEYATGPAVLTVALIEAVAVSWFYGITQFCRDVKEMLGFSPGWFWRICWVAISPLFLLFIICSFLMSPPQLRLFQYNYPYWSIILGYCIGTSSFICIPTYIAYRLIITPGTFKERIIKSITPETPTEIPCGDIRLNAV

For the compound `COc1cc(CCNCc2ccccc2OC)c(OC)cc1Cl` [25C-NBOMe], in [1], the Human blood concentration was 2.80 ng/mL.

Regarding `CCc1cc(OC)c(CCNCc2ccccc2OC)cc1OC` [25E-NBOMe, 2-(4-ethyl-2,5-dimethoxyphenyl)-N-(2-methoxybenzyl)ethanamine], the Ki in data set [2] turned out to be 1.11 ± 0.32 nM; in [7], 1680 ± 350 nM; in data set [9], 19600 ± 1200 nM; in data set [10], 0.127 ± 0.019 nM; in data set [13], 5400 ± 1000 nM; in [14], 1590 ± 120 nM. Besides, the EC50 in data set [3] was over 100000 nM; in [5] it was 13700 ± 5600 nM; in [6], 23.5 ± 6 nM; in data set [8], 0.5 ± 0.14 nM; in data set [12], over 66000 nM; in data set [16], over 85000 nM. The compound further gave an EC50 in [17] of 0.95 ± 0.18 nM. Also, in data set [3], the “% maximum release, hSERT [^3H]5-HT” value is given as 0.21 ± 0.77%. Besides, the IC50 came to 34000 ± 10000 nM in [4], 2310 ± 700 nM in data set [11] and 1440 ± 140 nM in [15]. In addition, the Emax in [5] is 38%; in [6], 49.4%; in [8], 87.1%; in [17], 91.8%. Further, in [8], the “Selectivity (functional ratios) 5-HT2A: 5-HT1A” value is given as 27,000. The “Selectivity (functional ratios) 5-HT2A: 5-HT2B” value in [8] worked out at 47. Further, the “Selectivity (functional ratios) 5-HT2A: 5-HT2C” value in data set [8] was 1.9. For the same compound, the “Selectivity (binding ratios) 5-HT2A : 5-HT1A” value in data set [10] is reported as 13200. For the same compound, in data set [10], the “Selectivity (binding ratios) 5-HT2A : 5-HT2B” value is reported as 8.7. In addition, the “Selectivity (binding ratios) 5-HT2A : 5-HT2C” value in data set [10] is 2.4. The “% maximum release, hNET [^3H]NE” value in data set [12] is recorded as 17.1 ± 5.9%. In addition, in data set [16], the “% maximum release, hDAT [^3H]DA” value is listed as 5.8 ± 6.4%.

With `COc1ccc(OC)c(CCNCc2ccccc2OC)c1` [25H-NBOMe, 2-(2,5-dimethoxyphenyl)-N-(2-methoxybenzyl)ethanamine], in data set [18], the “blood concentration (molar)” value is listed as ~ 0.9 nM. Moreover, the inhibition constant Ki was 62.9 ± 7.5 nM in [2]; 81400 ± 8900 nM in [9]; 4.9 ± 1.3 nM in data set [10]; 16300 ± 2600 nM in [13]; 2220 ± 340 nM in data set [14]. Moreover, the EC50 in data set [3] was over 100000 nM; in [5], 28400 ± 8600 nM; in data set [6], 463 ± 71 nM; in data set [8] it was 40.7 ± 8.1 nM; in [12], over 66000 nM; in data set [16], over 100000 nM. In data set [17], this compound showed an EC50 of 13.8 ± 2.6 nM. The “% maximum release, hSERT [^3H]5-HT” value in [3] was −0.27 ± 0.49%. Moreover, the IC50 in [4] was over 100000 nM; in data set [11], 3650 ± 880 nM; in [15] it was 2080 ± 310 nM. In addition, the Emax in data set [5] was 52%; in data set [6], 37.7%; in data set [8] it was 85.9%; in [17], 95.5%. Besides, the “Selectivity (functional ratios) 5-HT2A: 5-HT1A” value in [8] was determined as 700. In addition, the “Selectivity (functional ratios) 5-HT2A: 5-HT2B” value in [8] was 11. Moreover, in [8], the “Selectivity (functional ratios) 5-HT2A: 5-HT2C” value was 0.34. The “Selectivity (binding ratios) 5-HT2A : 5-HT1A” value in [10] is 920. Besides, the “Selectivity (binding ratios) 5-HT2A : 5-HT2B” value in [10] worked out at 13. Besides, the “Selectivity (binding ratios) 5-HT2A : 5-HT2C” value in [10] is recorded as 3.3. For the same compound, in data set [12], the “% maximum release, hNET [^3H]NE” value was found to be 21 ± 12%. Further, the Human blood concentration in [1] was 0.29 ng/mL. Besides, in data set [16], the “% maximum release, hDAT [^3H]DA” value is on record as −0.18 ± 0.26%.

On to `COc1cc(CCNCc2ccccc2O)c(OC)cc1I` [25I-NBOH, 2-(((4-iodo-2,5-dimethoxyphenethyl)amino)methyl)phenol], for which the Ki turned out to be 1.91 ± 0.48 nM in data set [2]; 2220 ± 590 nM in data set [7]; 8500 ± 380 nM in data set [9]; 0.169 ± 0.013 nM in data set [10]; 4060 ± 650 nM in [13]; 1220 ± 210 nM in [14]. Moreover, the EC50 was over 100000 nM in [3]; 37000 ± 13000 nM in [5]; 111 ± 13 nM in [6]; 0.76 ± 0.26 nM in [8]; over 100000 nM in data set [12]; over 100000 nM in data set [16]. The EC50 in data set [17] worked out at 2.38 ± 0.72 nM. In addition, in data set [3], the “% maximum release, hSERT [^3H]5-HT” value was −0.27 ± 0.40%. The IC50 in [4] was 30700 ± 5000 nM; in data set [11], 629 ± 93 nM; in data set [15], 1720 ± 250 nM. Besides, the Emax in [5] was 74%; in [6], 21.3%; in data set [8], 87.5%; in [17] it was 94%. Also, in data set [8], the “Selectivity (functional ratios) 5-HT2A: 5-HT2B” value turned out to be 146. For the same compound, the “Selectivity (functional ratios) 5-HT2A: 5-HT2C” value in data set [8] was determined as 3.1. In [10], the “Selectivity (binding ratios) 5-HT2A : 5-HT1A” value is recorded as 13100. Moreover, in data set [10], the “Selectivity (binding ratios) 5-HT2A : 5-HT2B” value was found to be 11. For the same compound, the “Selectivity (binding ratios) 5-HT2A : 5-HT2C” value in [10] is given as 6.1. Besides, in data set [12], the “% maximum release, hNET [^3H]NE” value is reported as 16 ± 16%. In [16], the “% maximum release, hDAT [^3H]DA” value is given as −0.56 ± 0.35%.

Take `COc1cc(CCNCc2ccccc2OC)c(OC)cc1I` [25I-NBOMe]: the “blood concentration (molar)” value in data set [18] was ~ 8 nM. Besides, in [19], the “Postmortem brain tissue concentration” value was 2.54 ng/g and the “Postmortem peripheral blood concentration” value was 0.405 ng/mL.

`COc1cc(CC(C)N)c(OC)cc1I` (stereo not shown) [[^125I]DOI, [^125I]2,5-dimethoxy-4-iodoamphetamine]: the Kd in data set [20] is 4.18 nM.

Consider `COC(=O)[C@H]1[C@@H](c2ccc(I)cc2)CC2CC[C@H]1N2C` [[^125I]RTI-55, [^125I]methyl (1R,2S,3S)-3-(4-iodophenyl)-8-methyl-8-azabicyclo[3.2.1]octane-2-carboxylate], for which the results for the Kd in data set [21] and in data set [22] were 12.1 nM and 1.83 nM, respectively.

The record behind these values is publication PMC6298744 (Biochemical pharmacology, 2018).
